Experimental data: patent US5607919A, “Anti-microbial proteins” (Sandoz Ltd., priority 1993, dated 1997)

B1: WIN N: chitin-binding WIN protein purified from barley grain or stressed barley leaf; residues 22-146 in SEQ ID No. 11 (protein)
chain: QQANNVRATYHYYRPAQNNWDLGAPAVSAYCATWDASKPLSWRSKYGWTAFCGPAGPRGQAACGKCLRVTNPATGAQITARIVDQCANGGLDLDWDTVFTKIDTNGIGYQQGHLNVNYQFVDCRD

Assays:
[1] = system: Exserohilum turcicum race 2; format: cell-based; conditions: 120 h; ni = did not inhibit fungal growth
Diplodia maydis = test: Anti-fungal activity against corn pathogens, microtiter spore assay; format: cell-based; conditions: 120 h; ni = did not inhibit fungal growth
Cochliobolus sativus = test: Mycelial growth in agar droplets coated with test protein; format: cell-based; conditions: protein concentration 20 μg/ml; 5 days; ni = did not inhibit
Botrytis cinerea = test: as above; format: cell-based; conditions: protein concentration 20 μg/ml; 5 days; ni = did not inhibit
Fusarium culmorum = test: as above; format: cell-based; conditions: protein concentration 20 μg/ml; 5 days; ni = did not inhibit
Description: Concerning the results shown in Table 3, the assay of the AX and WIN N proteins in respect of the disclosed pathogens is performed as follows. Mycelium from the disclosed fungi are dispersed in a drop of molten agar which is then solidified. The solid agar droplets comprising the encapsulated mycelia are then coated with the test protein in the specified amount. Following incubation for 5 days under moist conditions the amount of mycelial growth is determined in comparison with controls, in which the agar droplets comprising the fungal roycelia are not coated with test protein. The results presented in […]

Rhizoctonia solani = test: as above; format: cell-based; conditions: 5 days
Pyricularia oryzae = format: cell-based; conditions: protein concentration 20 μg/ml; 5 days; ni = did not inhibit
Leptosphaeria nodorum = test: Mycelial growth in agar droplets coated with test protein; format: cell-based; conditions: protein concentration 20 μg/ml; 5 days; ni = did not inhibit
[2] = system: Colletotrichum graminicola; test: Anti-fungal activity against corn pathogens, microtiter spore assay; format: cell-based; conditions: 120 h; ni = did not inhibit fungal growth
Gibberella zeae = format: cell-based; conditions: 120 h; ni = did not inhibit fungal growth
Fusarium moniliforme = test: Anti-fungal activity against corn pathogens, microtiter spore assay; format: cell-based; conditions: 120 h; ni = did not inhibit fungal growth
Exserohilum turcicum = test: Anti-fungal activity against corn pathogens, microtiter spore assay (Table 2, race not given); format: cell-based; conditions: 120 h; ni = did not inhibit fungal growth
[3] = system: Pseudocercosporella herpotrichoides; test: Mycelial growth in agar droplets coated with test protein; format: cell-based; conditions: 5 days
Bipolaris maydis = test: Anti-fungal activity against corn pathogens, microtiter spore assay; format: cell-based; conditions: 120 h; ni = did not inhibit fungal growth
Description: (§1) The AX proteins according to the present invention are assessed for their anti-fungal activity against a number of corn pathogens. Concerning the results depicted in Tables 1 and 2, the assay of the AX proteins in respect of the corn pathogens is performed as follows. Five μl of a solution containing the proteins at the indicated concentrations are aseptically transferred into a well of a sterile, round-bottomed microtiter plate. All treatments are replicated once. Un-inoculated and inoculated culture media minus test protein solution are routinely included as controls. Spores (100-150) are aseptically added to each sample in a 5.0 μl aliquot of double strength Potato Dextrose Broth (PDB).
(§2) Following gentle agitation to mix the protein sample and spore suspension, a double layer of parafilm is wrapped around the lid/plate junction in order to minimize desiccation and the thus wrapped microtiter plate is incubated at 19°±0.2° C. with a 16 h photoperiod.
(§3) Individual wells are scored for spore germination and mycelial growth every 24 h. At the end of 120 h the level of anti-fungal activity is determined.

[4] = system: Exserohilum turcicum race 1; test: as above; format: cell-based; conditions: 120 h; ni = did not inhibit fungal growth
Description: as §1, §2, §3

C. beticola = test: Inhibition of fungal growth in 96 well micro-titre plates at 620 nm, spores of C. beticola; format: cell-based, Cercospora beticola; conditions: for 50% growth inhibition (I50) / IC50: C. beticola, after 72 hours incubation; for IC50: conversion of the ug/ml value, read-out: 50% growth inhibition (I50); for morphology of the fungus: FIG. 4, AX2 8 μg/ml, WIN 28 μg/ml; for rate of fungal hyphal extension: compared to controls
Monilinia fructigena = test: Mycelial growth in agar droplets coated with test protein; format: cell-based; conditions: protein concentration 20 μg/ml; 5 days; ni = did not inhibit
Fusarium graminearum = format: cell-based; conditions: 120 h; ni = did not inhibit fungal growth
[5] = protein concentration 20 μg/ml, ni = did not inhibit

Row | Molecule | Minimum inhibitory concentration [1] | Minimum inhibitory concentration (Diplodia maydis) | Protein concentration providing more than 50% growth inhibition (Diplodia maydis) | Growth inhibition (Cochliobolus sativus) | Growth inhibition (Botrytis cinerea) | Growth inhibition (Fusarium culmorum) | Growth inhibition (Pyricularia oryzae) | Growth inhibition (Leptosphaeria nodorum) | Minimum inhibitory concentration [2] | Protein concentration providing more than 50% growth inhibition [2] | Minimum inhibitory concentration (Gibberella zeae) | Protein concentration providing more than 50% growth inhibition (Gibberella zeae) | Minimum inhibitory concentration (Fusarium moniliforme) | Protein concentration providing more than 50% growth inhibition (Fusarium moniliforme) | Protein concentration providing more than 50% growth inhibition (Exserohilum turcicum) | Minimum inhibitory concentration (Bipolaris maydis) | Protein concentration providing more than 50% growth inhibition (Bipolaris maydis) | Minimum inhibitory concentration [4] | Growth inhibition (Monilinia fructigena) | Minimum inhibitory concentration (Fusarium graminearum) | other results
1 | AX2: anti-microbial protein from sugar beet leaves infected with Cercospora beticola; residues 29-74 in SEQ ID No. 5, 46 amino acids (ATCRKPSMYFSGACFSDTNCQKACNREDWPNGKCLVGFKCECQRPC) | ni | ni | ni | 30% | 10% | 10% | 20% | 10% | 50 µg/mL | 50 µg/mL | ni | ni | ni | ni | ni | 30 µg/mL | 33 µg/mL | 98 µg/mL | 80% | 33 µg/mL | Growth inhibition (Rhizoctonia solani; protein concentration 40 μg/ml): 10%; Growth inhibition ([3]; protein concentration 20 μg/ml): 30%; 50% growth inhibition (I50) (C. beticola): 2 µg/mL; IC50 (C. beticola): ~0.5 µM; morphology of the fungus (C. beticola): markedly changed; growth in vitro of C. beticola (C. beticola; FIGS. 3A and 3B, result in words): greater than that of AX1; rate of fungal hyphal extension (C. beticola): profoundly slow; fungicidal activity against C. beticola (C. beticola; result in words): do not appear to exhibit fungicidal activity; Protein concentration providing more than 50% growth inhibition (Fusarium graminearum): 33 µg/mL
2 | AX1: anti-microbial protein from sugar beet leaves infected with Cercospora beticola; residues 29-74 in SEQ ID No. 2, 46 amino acids (AICKKPSKFFKGACGRDADCEKACDQENWPGGVCVPFLRCECQRSC) | 33 µg/mL | 11 µg/mL | 11 µg/mL | 30% | ni | ni | ni | ni | 50 µg/mL | 50 µg/mL | ni | ni | ni | ni | 33 µg/mL | 20 µg/mL | 20 µg/mL | 11 µg/mL | 80% | 33 µg/mL | Growth inhibition (Rhizoctonia solani; [5]): ni; Growth inhibition ([3]; protein concentration 20 μg/ml): 30%; Protein concentration providing more than 50% growth inhibition (Fusarium graminearum): 33 µg/mL
3 | B1 | 193 µg/mL | 64 µg/mL | 64 µg/mL | ni | ni | ni | ni | ni | ni | ni | ni | ni | ni | ni | 193 µg/mL | ni | ni | ni | ni | ni | Growth inhibition (Rhizoctonia solani; [5]): ni; Growth inhibition ([3]; protein concentration 40 μg/ml): 30%; 50% growth inhibition (I50) (C. beticola): 160 µg/mL; IC50 (C. beticola): ~11 µM; morphology of the fungus (C. beticola): markedly changed; rate of fungal hyphal extension (C. beticola): profoundly slow; fungicidal activity against C. beticola (C. beticola; result in words): do not appear to exhibit fungicidal activity; Protein concentration providing more than 50% growth inhibition (Fusarium graminearum): ni
